Structures are written as SMILES. Structures can show the parent of a compound that is named as a salt. A value given as a limit tells only on which side of the number the result lay.

Common to all, as to type: biochemical
Assay [1] has as its target T1, recombinant human MAO-A (monoamine oxidase-A) (Homo sapiens, UniProt P21397).
T1 construct: purchased Sigma-Aldrich
T1 sequence (P21397 1-527): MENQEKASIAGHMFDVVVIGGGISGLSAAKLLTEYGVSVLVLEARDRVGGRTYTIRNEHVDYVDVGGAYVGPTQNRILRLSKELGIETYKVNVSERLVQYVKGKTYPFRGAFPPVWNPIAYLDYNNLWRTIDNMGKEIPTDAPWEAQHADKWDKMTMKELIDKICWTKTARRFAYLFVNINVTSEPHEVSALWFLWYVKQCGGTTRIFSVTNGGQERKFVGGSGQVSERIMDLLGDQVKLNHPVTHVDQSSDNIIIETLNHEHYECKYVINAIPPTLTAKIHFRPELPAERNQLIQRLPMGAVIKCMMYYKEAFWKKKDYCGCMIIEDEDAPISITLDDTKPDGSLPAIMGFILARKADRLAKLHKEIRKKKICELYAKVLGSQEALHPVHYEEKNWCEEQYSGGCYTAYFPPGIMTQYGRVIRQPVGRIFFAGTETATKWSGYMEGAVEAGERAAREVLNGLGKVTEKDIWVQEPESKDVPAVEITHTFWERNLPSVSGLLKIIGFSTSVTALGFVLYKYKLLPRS
Kind of assay: Amplex Red HRP-coupled amine oxidase assay, recombinant human MAO-A. The note with it: 0.5 mM tyramine substrate, read-out: Inhibitory activity (IC50, nM) MAO-A. As for the experimental part: (§1) The activities of the compounds according to the present invention against recombinant human Lysyl Oxidase-Like 2 (recombinant human LOXL2, R&D systems) were evaluated by measuring the levels of hydrogen peroxide in the HRP (horseradish peroxidase) coupled reactions, with the Amplex Red Hydrogen Peroxide Assay Kit (Molecular Probes, Invitrogen, USA). The tests were carried out at 37° C., and putrescine was used as a substrate. In the HRP coupling reaction, the oxidation of 10-acetyl-3,7-dihydroxyphenoxazine (Amplex Red reagent) by hydrogen peroxide generates a fluorescent product, i.e., resorufin. Briefly, the test compounds were dissolved in dimethyl sulfoxide (DMSO) at a concentration of 20 mM. Dose-response measurements were carried out by serial dilutions in DMSO to generate a six-point curve. The upper concentration was adjusted according to the potency of the compound, and then diluted with the reaction buffer to obtain a final DMSO concentration of 1%. Purified human LOXL2 in 50 mM sodium phosphate buffer (pH7.4) was added to each well of a 96 well black plate. The test compounds dissolved in DMSO were incubated with the human LOXL2 enzyme at 37° C. for 60 minutes. After the incubation for 60 minutes, a reaction mixture containing 400 μM Amplex Red reagent, 30 mM putrescine, and 2 U/mL HRP in 50 mM sodium phosphate buffer (pH 7.4) was added to each well. Fluorescence was measured with a microplate reader (Flexstation3, Molecular Devices), under the conditions of excitation at 530 nm and emission at 590 nm, 1 hour after the addition of the mixture. Inhibition by each compound was measured as % reduction in signal, compared to the control without an inhibitor (diluted DMSO only). The data were fixed to a four-variable logistic model, and […] values were calculated using the GraphPad Prism program.
(§2) And, the activities of the compounds according to the present invention against recombinant human MAO-A (monoamine oxidase-A, Sigma-Aldrich) and recombinant human MAO-B (monoamine oxidase-B, Sigma-Aldrich) were evaluated in a similar manner to the activity evaluation method for recombinant human LOXL2, using 0.5 mM tyramine and 1 mM benzylamine as a substrate, respectively. In addition, the activities of the compounds according to the present invention against recombinant human DAO (diamine oxidase, R&D systems) were evaluated in a similar manner to the activity evaluation method for recombinant human LOXL2, using 1 mM putrescine as a substrate.

The target in assay [2] is T2, recombinant human MAO-B (monoamine oxidase-B) (Homo sapiens, UniProt P27338).
T2 construct: purchased Sigma-Aldrich
T2 sequence (P27338 1-520): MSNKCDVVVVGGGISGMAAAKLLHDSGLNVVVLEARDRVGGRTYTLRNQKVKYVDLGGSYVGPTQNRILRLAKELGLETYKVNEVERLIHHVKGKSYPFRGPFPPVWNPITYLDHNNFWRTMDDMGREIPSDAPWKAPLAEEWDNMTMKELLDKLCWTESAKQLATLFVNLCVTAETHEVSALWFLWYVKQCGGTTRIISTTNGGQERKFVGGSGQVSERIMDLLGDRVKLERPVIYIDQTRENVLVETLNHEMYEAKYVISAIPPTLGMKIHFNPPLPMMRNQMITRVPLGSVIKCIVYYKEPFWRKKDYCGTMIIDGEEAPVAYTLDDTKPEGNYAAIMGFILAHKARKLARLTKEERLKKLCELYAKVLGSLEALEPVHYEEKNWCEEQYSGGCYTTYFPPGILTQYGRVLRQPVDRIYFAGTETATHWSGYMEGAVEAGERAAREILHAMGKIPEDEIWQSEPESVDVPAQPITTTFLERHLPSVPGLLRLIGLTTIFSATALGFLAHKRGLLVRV
Kind of assay: Amplex Red HRP-coupled amine oxidase assay, recombinant human MAO-B. Particulars: 1 mM benzylamine substrate, read-out: Inhibitory activity (IC50, nM) MAO-B. As for the experimental part: as §1, §2

For assay [3], the target named is T3, recombinant human DAO (diamine oxidase) (Homo sapiens, UniProt P19801).
T3 construct: purchased R&D systems
T3 sequence (P19801 20-751): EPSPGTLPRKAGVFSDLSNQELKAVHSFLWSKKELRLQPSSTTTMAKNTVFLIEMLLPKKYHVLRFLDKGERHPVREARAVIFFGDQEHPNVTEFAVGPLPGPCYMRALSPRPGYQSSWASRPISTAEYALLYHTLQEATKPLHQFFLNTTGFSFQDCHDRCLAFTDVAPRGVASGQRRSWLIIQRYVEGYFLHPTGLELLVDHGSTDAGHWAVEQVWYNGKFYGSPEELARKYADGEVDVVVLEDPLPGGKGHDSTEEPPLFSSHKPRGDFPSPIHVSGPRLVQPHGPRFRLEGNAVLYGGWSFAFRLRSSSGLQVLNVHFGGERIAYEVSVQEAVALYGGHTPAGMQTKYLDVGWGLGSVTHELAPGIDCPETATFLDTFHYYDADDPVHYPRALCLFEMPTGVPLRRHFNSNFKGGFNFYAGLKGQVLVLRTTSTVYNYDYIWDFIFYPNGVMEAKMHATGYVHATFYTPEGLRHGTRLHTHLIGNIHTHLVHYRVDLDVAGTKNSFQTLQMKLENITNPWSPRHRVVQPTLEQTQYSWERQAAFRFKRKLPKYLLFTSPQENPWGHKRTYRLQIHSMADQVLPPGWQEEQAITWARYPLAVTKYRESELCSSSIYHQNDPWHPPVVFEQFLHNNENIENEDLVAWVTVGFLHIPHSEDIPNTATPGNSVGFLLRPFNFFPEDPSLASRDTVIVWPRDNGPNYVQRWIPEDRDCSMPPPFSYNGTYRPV
Kind of assay: Amplex Red HRP-coupled amine oxidase assay, recombinant human DAO. Particulars: 1 mM putrescine substrate, read-out: Inhibitory activity (IC50, nM) DAO. As for the experimental part:
as §1, §2

Assay [4] deals with T4, recombinant human Lysyl Oxidase-Like 2 (LOXL2) (Homo sapiens, UniProt Q9Y4K0).
T4 construct: purchased R&D systems
T4 sequence (Q9Y4K0 26-774): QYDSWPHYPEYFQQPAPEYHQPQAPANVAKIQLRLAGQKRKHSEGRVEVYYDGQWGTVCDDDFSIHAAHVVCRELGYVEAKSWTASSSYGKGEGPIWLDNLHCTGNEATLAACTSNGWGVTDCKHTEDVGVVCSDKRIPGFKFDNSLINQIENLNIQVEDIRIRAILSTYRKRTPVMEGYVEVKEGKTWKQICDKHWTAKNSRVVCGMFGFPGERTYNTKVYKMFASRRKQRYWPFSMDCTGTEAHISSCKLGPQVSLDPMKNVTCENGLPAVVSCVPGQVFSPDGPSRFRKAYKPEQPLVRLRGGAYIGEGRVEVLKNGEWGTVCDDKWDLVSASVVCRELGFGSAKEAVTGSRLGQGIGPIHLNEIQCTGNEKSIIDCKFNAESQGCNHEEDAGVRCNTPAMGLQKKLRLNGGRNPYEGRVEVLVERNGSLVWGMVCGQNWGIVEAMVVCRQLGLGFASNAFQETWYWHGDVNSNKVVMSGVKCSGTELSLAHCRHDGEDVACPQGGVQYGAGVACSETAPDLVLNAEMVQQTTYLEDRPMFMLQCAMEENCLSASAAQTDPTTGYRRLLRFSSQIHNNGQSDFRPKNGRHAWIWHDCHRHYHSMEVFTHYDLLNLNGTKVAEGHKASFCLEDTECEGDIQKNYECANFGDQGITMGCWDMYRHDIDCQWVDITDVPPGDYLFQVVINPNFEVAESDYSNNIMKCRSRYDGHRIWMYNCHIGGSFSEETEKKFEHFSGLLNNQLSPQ
Put plainly: Amplex Red HRP-coupled amine oxidase assay, recombinant human LOXL2. The note with it: 60 min incubation with enzyme at 37° C., putrescine substrate, read-out: Inhibitory activity (IC50, nM) human LOXL2. A digest of the protocol: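 Putrescine substrate (30 mM) in 50 mM sodium phosphate pH 7.4, 37 °C; compounds preincubated 60 min with enzyme, 1% DMSO final, six-point curves. H2O2 detected via 400 μM Amplex Red/2 U/mL HRP, fluorescence (ex 530/em 590 nm) after 1 h; IC50 from four-parameter logistic fit of % signal reduction.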

As usually defined, the IC50 is the concentration at which inhibition is half-maximal. In the case of `CNS(=O)(=O)c1cccc(-c2cc(C(F)(F)F)cc3c2ncn3C/C(F)=C/CN)c1` [Example 20, (Z)-3-(1-(4-amino-2-fluorobut-2-en-1-yl)-6-(trifluoromethyl)-1H-benzo[d]imidazol-4-yl)-N-methylbenzenesulfonamide hydrochloride], the IC50 is > 100000 nM in assay [1], > 100000 nM in assay [2], > 100000 nM in assay [3] and 77 nM in assay [4].

As for `COC(=O)c1cc(-c2ccc(OC)c(S(=O)(=O)N(C)C)c2)c2ncn(C/C(F)=C/CN)c2c1` [Example 21, methyl (Z)-1-(4-amino-2-fluorobut-2-en-1-yl)-4-(3-(N,N-dimethylsulfamoyl)-4-methoxyphenyl)-1H-benzo[d]imidazol-6-carboxylate hydrochloride], the IC50 in assay [1] was 12200 nM; in assay [2], > 100000 nM; in assay [3] it was 380 nM; in assay [4], 22.7 nM.

Consider `COC(=O)c1cc(-c2cccc(S(=O)(=O)N3CCC(F)(F)C3)c2)c2ncn(C/C(F)=C/CN)c2c1` [Example 22, methyl (Z)-1-(4-amino-2-fluorobut-2-en-1-yl)-4-(3-((3,3-difluoropyrrolidine-1-yl)sulfonyl)phenyl)-1H-benzo[d]imidazol-6-carboxylate hydrochloride], for which the 50% inhibitory concentration (IC50) in assay [1] was 53300 nM; in assay [2] it was > 100000 nM; in assay [3] it was 5070 nM; in assay [4], 19.9 nM.

With `COC(=O)c1cc(-c2cccc(S(=O)(=O)N3CCCC3)c2)c2ncn(C/C(F)=C/CN)c2c1` [Example 23, methyl (Z)-1-(4-amino-2-fluorobut-2-en-1-yl)-4-(3-(pyrrolidin-1-ylsulfonyl)phenyl)-1H-benzo[d]imidazol-6-carboxylate hydrochloride], the 50% inhibitory concentration (IC50) was > 100000 nM in assay [1], > 100000 nM in assay [2], 986 nM in assay [3] and 16.7 nM in assay [4].

As to `CNS(=O)(=O)c1ccc(OC)c(-c2cc(C(=O)OC)cc3c2ncn3C/C(F)=C/CN)c1` [Example 24, methyl (Z)-1-(4-amino-2-fluorobut-2-en-1-yl)-4-(2-methoxy-5-(N-methylsulfamoyl)phenyl)-1H-benzo[d]imidazol-6-carboxylate hydrochloride], the half-maximal inhibitory concentration (IC50) was > 100000 nM in assay [1], > 100000 nM in assay [2], 21800 nM in assay [3] and 15.9 nM in assay [4].

As for `COC(=O)c1cc(-c2cccc(S(C)(=O)=O)c2)c2ncn(C/C(F)=C/CN)c2c1` [Example 25, methyl (Z)-1-(4-amino-2-fluorobut-2-en-1-yl)-4-(3-(methylsulfonyl)phenyl)-1H-benzo[d]imidazol-6-carboxylate hydrochloride], the half-maximal inhibitory concentration (IC50) in assay [1] was > 100000 nM; in assay [2] it was > 100000 nM; in assay [3], 1230 nM; in assay [4], 22.7 nM.

Turning to `COC(=O)c1cc(-c2cc(S(=O)(=O)NC3CC3)ccc2OC)c2ncn(C/C(F)=C/CN)c2c1` [Example 27, methyl (Z)-1-(4-amino-2-fluorobut-2-en-1-yl)-4-(5-(N-cyclopropylsulfamoyl)-2-methoxyphenyl)-1H-benzo[d]imidazol-6-carboxylate hydrochloride], the IC50 in assay [1] was 45700 nM; in assay [2] it was > 100000 nM; in assay [3] it was 16100 nM; in assay [4] it was 31.3 nM.

Regarding `COC(=O)c1cc(-c2cccc(S(=O)(=O)NC3CC3)c2)c2ncn(C/C(F)=C/CN)c2c1` [Example 29, methyl (Z)-1-(4-amino-2-fluorobut-2-en-1-yl)-4-(3-(N-cyclopropylsulfamoyl)phenyl)-1H-benzo[d]imidazol-6-carboxylate hydrochloride], the IC50 in assay [1] was > 100000 nM; in assay [2] it was > 100000 nM; in assay [3], 1370 nM; in assay [4], 34.9 nM.

The record behind these values is US12686665B2, “Bicyclic fused ring derivative or salt thereof and pharmaceutical composition comprising same” (YUHAN CORPORATION, priority 2021, dated 2026).
